# According to patent US8349872B2, “Tripyridyl carboxamide orexin receptor antagonists” (Merck Sharp & Dohme Corp., priority 2008, dated 2013):
# Target: T1, OX2 receptor (Homo sapiens, UniProt O43614)
# T1 construct: expressed in transfected cells; host or cells: CHO cells (membranes)
# T1 sequence (O43614 1-444): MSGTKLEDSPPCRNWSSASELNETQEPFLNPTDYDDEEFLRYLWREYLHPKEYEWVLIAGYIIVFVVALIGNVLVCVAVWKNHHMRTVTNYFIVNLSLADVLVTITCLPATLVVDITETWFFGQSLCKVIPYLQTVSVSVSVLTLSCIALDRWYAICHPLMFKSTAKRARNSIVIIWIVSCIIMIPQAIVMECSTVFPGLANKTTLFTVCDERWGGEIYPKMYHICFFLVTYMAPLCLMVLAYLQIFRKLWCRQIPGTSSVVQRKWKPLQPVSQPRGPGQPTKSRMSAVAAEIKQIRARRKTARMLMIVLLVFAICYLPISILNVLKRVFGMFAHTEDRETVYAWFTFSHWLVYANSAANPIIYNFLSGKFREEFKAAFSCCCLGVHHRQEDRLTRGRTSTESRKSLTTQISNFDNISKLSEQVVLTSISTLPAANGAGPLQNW
# Test: radioligand binding assay, OX2 receptor
# Conditions: membranes prepared from CHO cells expressing the OX2 receptor; read-out: OX2R Ki
# Experimental: The utility of the compounds in accordance with the present invention as orexin receptor OX1R and/or OX2R antagonists may be readily determined without undue experimentation by methodology well known in the art, including the “FLIPR Ca^2+ Flux Assay” (Okumura et al., Biochem. Biophys. Res. Comm. 280:976-981, 2001). In a typical experiment the OX1 and OX2 receptor antagonistic activity of the compounds of the present invention was determined in accordance with the following experimental method. For intracellular calcium measurements, Chinese hamster ovary (CHO) cells expressing the rat orexin-1 receptor or the human orexin-2 receptor, are grown in Iscove's modified DMEM containing 2 mM L-glutamine, […], 1% hypoxanthine-thymidine supplement, 100 U/ml penicillin, 100 ug/ml streptomycin and 10% heat-inactivated fetal calf serum (FCS). The cells are seeded at 20,000 cells/well into Becton-Dickinson black 384-well clear bottom sterile plates coated with poly-D-lysine. All reagents were from GIBCO-Invitrogen Corp. The seeded plates are incubated overnight at 37° C. and 5% CO2. Ala-6,12 human orexin-A as the agonist is prepared as a 1 mM stock solution in 1% bovine serum albumin (BSA) and diluted in assay buffer (HBSS containing 20 mM HEPES, 0.1% BSA and 2.5 mM probenecid, pH 7.4) for use in the assay at a final concentration of 70 pM. Test compounds are prepared as 10 mM stock solution in DMSO, then diluted in 384-well plates, first in DMSO, then assay buffer. On the day of the assay, cells are washed 3 times with 100 ul assay buffer and then incubated for 60 min (37° C., 5% CO2) in 60 ul assay buffer containing 1 uM Fluo-4AM ester, 0.02% pluronic acid, and 1% BSA. The dye loading solution is then aspirated and cells are washed 3 times with 100 ul assay buffer. 30 ul of that same buffer is left in each well. Within the Fluorescent Imaging Plate Reader (FLIPR, Molecular Devices), test compounds are added to the plate in a volume of 25 ul, incubated for 5 min and finally 25 ul of agonist is added. Fluorescence is measured for each well at 1 second intervals for 5 minutes and the height of each fluorescence peak is compared to the height of the fluorescence peak induced by 70 pM Ala-6,12 orexin-A with buffer in place of antagonist. For each antagonist, IC50 value (the concentration of compound needed to inhibit 50% of the agonist response) is determined. Alternatively, compound potency can be assessed by a radioligand binding assay (described in Bergman et. al. Bioorg. Med. Chem. Lett. 2008, 18, 1425-1430) in which the inhibition constant (Ki) is determined in membranes prepared from CHO cells expressing either the OX1 or OX2 receptor. The intrinsic orexin receptor antagonist activity of a compound which may be used in the present invention may be determined by these assays.
row,Compound,Ki
1,"COc1ccc(CNC(=O)c2cc(-c3cncc(C)c3)cnc2-c2ccccn2)nc1OC [12-6, N-[(5,6-dimethoxypyridin-2-yl)methyl]-5″-methyl-2,2′:5′,3″-terpyridine-3′-carboxamide]",0.46 nM
2,"COc1ccc(CNC(=O)c2cc(-c3cc(C)cnc3F)cnc2-c2ccccn2)cc1Cl [11-5, N-(3-chloro-4-methoxybenzyl)-2″-fluoro-5″- methyl-2,2′: 5′,3 ″-terpyridine-3′-carboxamide]",1.3 nM
3,"N-(4-ethyl-3- methoxybenzyl)-5″- methyl-2,2′:5′,3″- terpyridine-3′- carboxamide [12-17]",1.2 nM

# Next, values leading:
row,Ki,Compound
1,12 nM,"COc1ccc(CNC(=O)c2cc(-c3cncc(C#N)c3)cnc2-c2ccccn2)nc1OC [12-14, 5″-cyano-N-[(5,6-dimethoxypyridin-2-yl)methyl]-2,2′:5′,3″- terpyridine-3′-carboxamide]"
2,0.54 nM,"COc1ccc(CNC(=O)c2cc(-c3cncc(Cl)c3)cnc2-c2ccccn2)nc1OC [12-5, 5″-chloro-N-[(5,6-dimethoxypyridin-2-yl)methyl]-2,2′:5′,3″-terpyridine-3′-carboxamide]"
